In patent US20200392150A1, “Diaryl-B-Lactam Compound and Preparation Method and Pharmaceutical Use Thereof” (Fudan University, priority 2016, published 2020):
Read-outs that look alike come from different tables or passages of the source.

What was measured:
Assay in all cases: In vitro cell growth inhibition assay (MTT)
Format in all cases: cell-based, human
SKOV3 = settings: read-out: IC50 SKOV3
Protocol: (§1) 5000 tumor cells per well were seeded into 96-well plate and allowed to adhere overnight. Cells were treated with various concentrations of tested compounds or DMSO (0.2%, as negative control) for 48 h. Then, the medium along with tested compounds or DMSO was discarded and […] per well MTT containing medium (0.5 mg/mL) was added. After incubation at 37° C. for 4 h, the MTT-containing medium was replaced by DMSO (150 μL per well) to dissolve the formazan crystals. Absorbance of the resulting solution was measured by microplate reader (Biotech ELx800) at 540 nm wavelength. Growth inhibition rates were calculated with the absorbance. Half maximal inhibitory concentration (IC50) of each compound was calculated using GraphPad Prism, version 6.0.

MDA-MB-231 = settings: read-out: IC50 MDA-MB-231
Protocol: as §1

A2780 = settings: read-out: IC50 A2780
Protocol: as §1

Hela = settings: 48 h, read-out: IC50 Hela
Protocol: as §1

[1] = SK-OV-3, SKOV-3 human ovarian cancer cell line, 48 h, MTT
[2] = MDA-MB-231 human breast cancer cell line, 48 h, MTT
[3] = A2780 human ovarian cancer cell line, 48 h, MTT
[4] = Hela human cervical cancer cell line, MTT

Row | Structure (SMILES) | IC50 (SKOV3; [1]) | IC50 (MDA-MB-231; [2]) | IC50 (A2780; [3]) | IC50 (Hela; [4]) | IC50 (SKOV3; Homo sapiens, SK-OV-3, 48 h) | IC50 (MDA-MB-231; Homo sapiens, MDA-MB-231, 48 h) | IC50 (A2780; Homo sapiens, A2780, 48 h) | IC50 (Hela; Homo sapiens, HeLa)
1 | COc1ccc([C@H]2[C@@H](C)C(=O)N2c2cc(OC)c(OC)c(OC)c2)cc1N [Compound 103, (3R,4R)-4-(3-amino-4-methoxyphenyl)-3-methyl-1-(3,4,5-trimethoxyphenyl)azetidin-2-one] | 77 nM | 81 nM | 78 nM | 61 nM | – | – | – | –
2 | C=C1C(=O)N(c2ccc(OC)cc2OC)[C@H]1c1ccc(OC)c(O)c1 [Compound 50, (S)-1-(2,4-dimethoxyphenyl)-4-(3-hydroxy-4-methoxyphenyl)-3-methyleneazetidin-2-one] | 513 nM | 291 nM | 234 nM | 894 nM | – | – | – | –
3 | COc1ccc([C@H]2[C@H](C)C(=O)N2c2cc(OC)c(OC)c(OC)c2)cc1N [Compound 104, (3S,4R)-4-(3-amino-4-methoxyphenyl)-3-methyl-1-(3,4,5-trimethoxyphenyl)azetidin-2-one] | 25 nM | 32 nM | 20 nM | 37 nM | – | – | – | –
4 | CC[C@H]1C(=O)N(c2cc(OC)c(OC)c(OC)c2)[C@H]1c1ccc(OC)c(O)c1 [Compound 106, (3R,4R)-3-ethyl-4-(3-hydroxy-4-methoxyphenyl)-1-(3,4,5-trimethoxyphenyl)azetidin-2-one] | 215 nM | 286 nM | 250 nM | 320 nM | – | – | – | –
5 | C=C1C(=O)N(c2cc(OC)c(OC)c(OC)c2)[C@H]1c1ccc(OC)c(OP(=O)(OCc2ccccc2)OCc2ccccc2)c1 [Compound 37, (S)-dibenzyl (2-methoxy-5-(3-methylene-4-oxo-1-(3,4,5-trimethoxyphenyl)azetidin-2-yl)phenyl) phosphate] | > 20000 nM | > 20000 nM | > 20000 nM | > 20000 nM | – | – | – | –
6 | C=C1C(=O)N(c2cc(OC)c(OC)c(OC)c2)[C@H]1c1ccc(OC)c(OCCN(C)C)c1 [Compound 14, (S)-4-(3-(2-(dimethylamino)ethoxy)-4-methoxyphenyl)-3-methylene-1-(3,4,5-trimethoxyphenyl)azetidin-2-one] | – | – | – | – | > 10000 nM | > 10000 nM | > 10000 nM | > 10000 nM
7 | COc1ccc([C@@H]2N(c3cc(OC)c(OC)c(OC)c3)C(=O)C23CC3)cc1O [Compound 105, (S)-6-(3-hydroxy-4-methoxyphenyl)-5-(3,4,5-trimethoxyphenyl)-5-azaspiro[2.3]hexan-4-one] | 388 nM | 326 nM | 302 nM | 436 nM | – | – | – | –
8 | COc1ccc([C@H]2/C(=C\C[Si](C)(C)C)C(=O)N2c2cc(OC)c(OC)c(OC)c2)cc1O [Compound 54, (S,E)-4-(3-hydroxy-4-methoxyphenyl)-1-(3,4,5-trimethoxyphenyl)-3-(2-(trimethylsilyl)ethylidene)azetidin-2-one] | > 10000 nM | > 10000 nM | > 10000 nM | > 10000 nM | – | – | – | –
9 | C=C1C(=O)N(c2cc(OC)c(OC)c(OC)c2)[C@H]1c1ccc(OC)c(F)c1 [Compound 38, (S)-4-(3-fluoro-4-methoxyphenyl)-3-methylene-1-(3,4,5-trimethoxyphenyl)azetidin-2-one] | 134 nM | 111 nM | 121 nM | 131 nM | – | – | – | –
10 | C=C1C(=O)N(c2cc(OC)c(OC)c(OC)c2)[C@H]1c1ccc(OC)c(OC(=O)c2ccc(OC)cc2)c1 [Compound 96, (S)-2-methoxy-5-(3-methylene-4-oxo-1-(3,4,5-trimethoxyphenyl)azetidin-2-yl)phenyl 4-methoxybenzoate] | 258 nM | 284 nM | 125 nM | 139 nM | – | – | – | –
11 | C=C1C(=O)N(c2cc(OC)c(OC)c(OC)c2)[C@H]1c1cccc(O)c1 [Compound 85, (S)-4-(3-hydroxyphenyl)-3-methylene-1-(3,4,5-trimethoxyphenyl)azetidin-2-one] | 14500 nM | 6640 nM | 10500 nM | 15000 nM | – | – | – | –
12 | COc1ccc([C@H]2[C@H](C)C(=O)N2c2cc(OC)c(OC)c(OC)c2)cc1OS(=O)(=O)F [Compound 109, 2-methoxy-5-((2R,3S)-3-methyl-4-oxo-1-(3,4,5-trimethoxyphenyl)azetidin-2-yl)phenyl sulfofluoridate] | 34 nM | 23 nM | 21 nM | 51 nM | – | – | – | –
13 | COc1ccc([C@H]2[C@H](NC(=O)c3ccccc3)C(=O)N2c2cc(OC)c(OC)c(OC)c2)cc1O [Compound 78, N-((2S,3S)-2-(3-hydroxy-4-methoxyphenyl)-4-oxo-1-(3,4,5-trimethoxyphenyl)azetidin-3-yl)benzamide] | 45 nM | 47 nM | 27 nM | 24 nM | – | – | – | –
14 | C=C1C(=O)N(c2cc(OC)c(OC)c(OC)c2)[C@H]1c1ccc(C)cc1 [Compound 87, (S)-3-methylene-4-(p-tolyl)-1-(3,4,5-trimethoxyphenyl)azetidin-2-one] | 265 nM | 193 nM | 127 nM | 209 nM | – | – | – | –
15 | COc1ccc([C@H]2[C@@H](CO)C(=O)N2c2cc(OC)c(OC)c(OC)c2)cc1O [Compound 68, (3S,4R)-4-(3-hydroxy-4-methoxyphenyl)-3-(hydroxymethyl)-1-(3,4,5-trimethoxyphenyl)azetidin-2-one] | – | 182 nM | 220 nM | 358 nM | – | – | – | –
16 | COc1ccc([C@H]2[C@H](n3cc(CO)nn3)C(=O)N2c2cc(OC)c(OC)c(OC)c2)cc1O [Compound 61, (3S,4S)-4-(3-hydroxy-4-methoxyphenyl)-3-(4-(hydroxymethyl)-1H-1,2,3-triazol-1-yl)-1-(3,4,5-trimethoxyphenyl)azetidin-2-one] | 83 nM | 28 nM | 15 nM | 33 nM | – | – | – | –
17 | C=C1C(=O)N(c2cc(OC)c(OC)c(OC)c2)[C@H]1c1ccc(OC)c(OC(=O)[C@H](C)NC(=O)OC(C)(C)C)c1 [Compound 35, (S)-2-methoxy-5-((S)-3-methylene-4-oxo-1-(3,4,5-trimethoxyphenyl)azetidin-2-yl)phenyl 2-((tert-butoxycarbonyl)amino)propanoate] | 252 nM | 496 nM | 496 nM | 106 nM | – | – | – | –
18 | COc1ccc([C@H]2[C@@H](CNCc3ccccc3)C(=O)N2c2cc(OC)c(OC)c(OC)c2)cc1O [Compound 63, (3R,4R)-3-((benzylamino)methyl)-4-(3-hydroxy-4-methoxyphenyl)-1-(3,4,5-trimethoxyphenyl)azetidin-2-one] | 1670 nM | 1790 nM | 1020 nM | 2270 nM | – | – | – | –
19 | COc1ccc([C@@H]2[C@H](CO)C(=O)N2c2cc(OC)c(OC)c(OC)c2)cc1O [Compound 100, (3R,4S)-4-(3-hydroxy-4-methoxyphenyl)-3-(hydroxymethyl)-1-(3,4,5-trimethoxyphenyl)azetidin-2-one] | – | 383 nM | 364 nM | 332 nM | – | – | – | –
20 | COc1ccc([C@H]2[C@H](N)C(=O)N2c2cc(OC)c(OC)c(OC)c2)cc1OCc1ccccc1 [Compound 76, (3S,4S)-3-amino-4-(3-(benzyloxy)-4-methoxyphenyl)-1-(3,4,5-trimethoxyphenyl)azetidin-2-one] | 8540 nM | – | – | 7460 nM | – | – | – | –
21 | COc1ccc([C@H]2C(=O)C(=O)N2c2cc(OC)c(OC)c(OC)c2)cc1OC(C)=O [Compound 93, (S)-5-(3,4-dioxo-1-(3,4,5-trimethoxyphenyl)azetidin-2-yl)-2-methoxyphenyl acetate] | > 10000 nM | – | – | > 10000 nM | – | – | – | –
22 | C/C=C1/C(=O)N(c2cc(OC)c(OC)c(OC)c2)[C@H]1c1ccc(OC)c(O)c1 [Compound 56, (S,E)-3-ethylidene-4-(3-hydroxy-4-methoxyphenyl)-1-(3,4,5-trimethoxyphenyl)azetidin-2-one] | 2830 nM | – | – | 2920 nM | – | – | – | –
23 | COc1ccc([C@@H]2[C@@H](CO)C(=O)N2c2cc(OC)c(OC)c(OC)c2)cc1O [Compound 99, (3S,4S)-4-(3-hydroxy-4-methoxyphenyl)-3-(hydroxymethyl)-1-(3,4,5-trimethoxyphenyl)azetidin-2-one] | – | > 20000 nM | > 20000 nM | > 20000 nM | – | – | – | –
24 | COc1ccc([C@@H]2N(c3cc(OC)c(OC)c(OC)c3)C(=O)[C@]23COC(=O)O3)cc1OC(C)=O [Compound 92, 5-((1S,4R)-3,6-dioxo-2-(3,4,5-trimethoxyphenyl)-5,7-dioxa-2-azaspiro[3.4]octan-1-yl)-2-methoxyphenyl acetate] | 1280 nM | – | – | 1570 nM | – | – | – | –
25 | COc1ccc([C@H]2[C@@H](OS(C)(=O)=O)C(=O)N2c2cc(OC)c(OC)c(OC)c2)cc1OCc1ccccc1 [Compound 73, (3R,4S)-2-(3-(benzyloxy)-4-methoxyphenyl)-4-oxo-1-(3,4,5-trimethoxyphenyl)azetidin-3-yl methanesulfonate] | > 10000 nM | – | – | > 10000 nM | – | – | – | –
26 | COc1ccc([C@H]2[C@@H](O)C(=O)N2c2cc(OC)c(OC)c(OC)c2)cc1OCc1ccccc1 [Compound 72, (3R,4S)-4-(3-(benzyloxy)-4-methoxyphenyl)-3-hydroxy-1-(3,4,5-trimethoxyphenyl)azetidin-2-one] | > 10000 nM | – | – | > 10000 nM | – | – | – | –
